This data set deals with human apolipoprotein B mRNA. Kind of data set: Inhibition of human apolipoprotein B mRNA levels in HepG2 cells, quantitative real-time PCR. Also on record: %INHIB of human apolipoprotein B mRNA levels: concentration or dose not given beside the values. Type of data set: cell-based. The following applies: for %INHIB of human apolipoprotein B mRNA levels: averages from two experiments. The protocol: The human hepatoblastoma cell line HepG2 was obtained from the American Type Culture Collection (Manassas, Va.). HepG2 cells were routinely cultured in Eagle's MEM supplemented with 10% fetal calf serum, non-essential amino acids, and 1 mM sodium pyruvate (Gibco/Life Technologies, Gaithersburg, Md.). Cells were routinely passaged by trypsinization and dilution when they reached 90% confluence. Cells were seeded into 96-well plates (Falcon-Primaria #3872) at a density of 7000 cells/well for use in RT-PCR analysis.
When cells reached 80% confluency, they were treated with oligonucleotide. For cells grown in 96-well plates, wells were washed once with 200 μL OPTI-MEM™-1 reduced-serum medium (Gibco BRL) and then treated with 130 μL of OPTI-MEM™-1 containing 3.75 μg/mL LIPOFECTIN™ (Gibco BRL) and the desired concentration of oligonucleotide. After 4-7 hours of treatment, the medium was replaced with fresh medium. Cells were harvested 16-24 hours after oligonucleotide treatment.
Quantitation of apolipoprotein B mRNA levels was determined by real-time quantitative PCR using the ABI PRISM™ 7700 Sequence Detection System (PE-Applied Biosystems, Foster City, Calif.) according to manufacturer's instructions. This is a closed-tube, non-gel-based, fluorescence detection system which allows high-throughput quantitation of polymerase chain reaction (PCR) products in real-time. As opposed to standard PCR, in which amplification products are quantitated after the PCR is completed, products in real-time quantitative PCR are quantitated as they accumulate. This is accomplished by including in the PCR reaction an oligonucleotide probe that anneals specifically between the forward and reverse PCR primers, and contains two fluorescent dyes. A reporter dye (e.g., JOE, FAM, or VIC, obtained from either Operon Technologies Inc., Alameda, Calif. or PE-Applied Biosystems, Foster City, Calif.) is attached to the 5′ end of the probe and a quencher dye (e.g., TAMRA, obtained from either Operon Technologies Inc., Alameda, Calif. or PE-Applied Biosystems, Foster City, Calif.) is attached to the 3′ end of the probe. When the probe and dyes are intact, reporter dye emission is quenched by the proximity of the 3′ quencher dye. During amplification, annealing of the probe to the target sequence creates a substrate that can be cleaved by the 5′-exonuclease activity of Taq polymerase. […] With each cycle, additional reporter dye molecules are cleaved from their respective probes, and the fluorescence intensity is monitored at regular intervals by laser optics built into the ABI PRISM™ 7700 Sequence Detection System. In each assay, a series of parallel reactions containing serial dilutions of mRNA from untreated control samples generates a standard curve that is used to quantitate the percent inhibition after antisense oligonucleotide treatment of test samples.
PCR reagents were obtained from PE-Applied Biosystems, Foster City, Calif. RT-PCR reactions were carried out by adding 25 μL PCR cocktail (1× TAQMAN™ buffer A, 5.5 mM MgCl2, 300 μM each of DATP, dCTP and dGTP, 600 μM of dUTP, 100 nM each of forward primer, reverse primer, and probe, 20 Units RNAse inhibitor, 1.25 Units AMPLITAQ GOLD™, and 12.5 Units MuLV reverse transcriptase) to 96 well plates containing 25 μL total RNA solution. The RT reaction was carried out by incubation for 30 minutes at 48° C. Following a 10 minute incubation at 95° C. to activate the AMPLITAQ GOLD™, 40 cycles of a two-step PCR protocol were carried out: 95° C. for 15 seconds (denaturation) followed by 60° C. for 1.5 minutes (annealing/extension).
Gene target quantities obtained by real time RT-PCR are normalized using either the expression level of GAPDH, a gene whose expression is constant, or by quantifying total RNA using RiboGreen™ (Molecular Probes, Inc. Eugene, Oreg.). GAPDH expression is quantified by real time RT-PCR, by being run simultaneously with the target, multiplexing, or separately. […]
On the technique in general: In qPCR the cycle at which signal appears reflects the starting amount.

Oligonucleotides are written 5' to 3', each unit as a sugar letter and its base; * is a phosphorothioate linkage, no mark a phosphodiester; rarer units and linkages stand in square brackets, end groups in braces. Plain capitals give the bases only. e = 2'-O-(2-methoxyethyl) (MOE); [5mC] = 5-methylcytosine; d = 2'-deoxy (DNA)

Consider “147784 (antisense e[5mC]*eA*eG*e[5mC]*eG*d[5mC]*d[5mC]*dA*dG*d[5mC]*dA*dG*d[5mC]*dG*d[5mC]*e[5mC]*eA*eG*e[5mC]*eA) [compound 147784]”, for which the “%INHIB of human apolipoprotein B mRNA levels” value (“%INHIB” below) worked out at 70%.

As to “147785 (antisense eG*e[5mC]*e[5mC]*e[5mC]*eG*d[5mC]*d[5mC]*dA*dG*d[5mC]*dA*dG*d[5mC]*dA*dG*e[5mC]*eA*eG*e[5mC]*eA) [compound 147785]”, the “%INHIB” value is 29%.

In the case of “147786 (antisense e[5mC]*eT*eT*eG*eA*dA*dT*d[5mC]*dA*dG*d[5mC]*dA*dG*dT*d[5mC]*e[5mC]*e[5mC]*eA*eG*eG) [compound 147786]”, the “%INHIB” value is 34%.

Consider “147788 (antisense eT*eT*eT*e[5mC]*eT*dG*dT*dT*dG*d[5mC]*d[5mC]*dA*d[5mC]*dA*dT*eT*eG*e[5mC]*e[5mC]*e[5mC]) [compound 147788]”, for which the “%INHIB” value is 95%. For the setting “50 nM”, the “Percent Inhibition of human apolipoprotein B mRNA levels” value (“Percent Inhibition” below) was determined as 54%. The “Percent Inhibition” value (150 nM) is listed as 63%. The “Percent Inhibition” value (250 nM) is recorded as 72%.

Regarding “147790 (antisense eT*eG*eT*eG*e[5mC]*dT*dA*d[5mC]*d[5mC]*dA*dT*d[5mC]*d[5mC]*d[5mC]*dA*eT*eA*e[5mC]*eT*eT) [compound 147790]”, the “%INHIB” value worked out at 33%.

Regarding “147792 (antisense eG*eG*eA*e[5mC]*eA*d[5mC]*d[5mC]*dT*d[5mC]*dA*dA*dT*d[5mC]*dA*dG*e[5mC]*eT*eG*eT*eG) [compound 147792]”, the “%INHIB” value stood at 26%.

“147794 (antisense eG*eT*eA*eA*eT*d[5mC]*dT*dT*d[5mC]*dA*dT*d[5mC]*d[5mC]*d[5mC]*d[5mC]*eA*eG*eT*eG*e[5mC]) [compound 147794]”: the “%INHIB” value was determined as 47%.

As for “147796 (antisense eG*e[5mC]*eA*eG*e[5mC]*d[5mC]*dA*dG*dT*d[5mC]*dG*d[5mC]*dT*dT*dA*eT*e[5mC]*eT*e[5mC]*e[5mC]) [compound 147796]”, the “%INHIB” value came out at 8%.

Consider “147801 (antisense e[5mC]*eA*eG*eA*e[5mC]*d[5mC]*d[5mC]*dG*dA*d[5mC]*dT*d[5mC]*dG*dT*dG*eG*eA*eA*eG*eA) [compound 147801]”, for which the “%INHIB” value was 38%.

As to “147806 (antisense eA*eT*eG*eT*eG*dG*dT*dA*dA*d[5mC]*dG*dA*dG*d[5mC]*d[5mC]*e[5mC]*eG*eA*eA*eG) [compound 147806]”, the “%INHIB” value is on record as 100%. Moreover, for the setting “50 nM”, the “Percent Inhibition” value was 23%. In addition, for the setting “150 nM”, the “Percent Inhibition” value stood at 45%. The “Percent Inhibition” value (250 nM) was determined as 28%.

As to “147807 (antisense eG*eG*e[5mC]*eG*eT*dA*dG*dA*dG*dA*d[5mC]*d[5mC]*d[5mC]*dA*dT*e[5mC]*eA*e[5mC]*eA*eT) [compound 147807]”, the “%INHIB” value is 25%.

On to “147809 (antisense e[5mC]*e[5mC]*e[5mC]*eA*eG*dT*dG*dA*dT*dA*dG*d[5mC]*dT*d[5mC]*dT*eG*eT*eG*eA*eG) [compound 147809]”, for which the “%INHIB” value is reported as 60%.

“147810 (antisense eA*eT*eT*eT*e[5mC]*dA*dG*d[5mC]*dA*dT*dA*dT*dG*dA*dG*e[5mC]*e[5mC]*e[5mC]*eA*eT) [compound 147810]”: the “%INHIB” value amounted to 0%.

As for “147814 (antisense e[5mC]*e[5mC]*e[5mC]*eA*eA*dT*dA*dA*dG*dA*dT*dT*dT*dA*dT*eA*eA*e[5mC]*eA*eA) [compound 147814]”, the “%INHIB” value worked out at 34%.

Take “147815 (antisense eT*eG*eG*e[5mC]*e[5mC]*dT*dA*d[5mC]*d[5mC]*dA*dG*dA*dG*dA*d[5mC]*eA*eG*eG*eT*eA) [compound 147815]”: the “%INHIB” value is listed as 45%.

“147818 (antisense eA*eG*eT*eG*eA*dT*dG*dG*dA*dA*dG*d[5mC]*dT*dG*d[5mC]*eG*eA*eT*eA*e[5mC]) [compound 147818]”: the “%INHIB” value is on record as 30%.

For the substance “147820 (antisense eG*eA*eA*e[5mC]*eA*d[5mC]*dA*dT*dA*dG*d[5mC]*d[5mC]*dG*dA*dA*eT*eG*e[5mC]*e[5mC]*eG) [compound 147820]”, the “%INHIB” value is listed as 100%. Besides, for the setting “50 nM”, the “Percent Inhibition” value turned out to be 10%. Besides, where the note is “150 nM”, the “Percent Inhibition” value is recorded as 0%. Further, under “250 nM”, the “Percent Inhibition” value is on record as 73%.

With “147823 (antisense eT*eG*e[5mC]*e[5mC]*e[5mC]*dT*dG*d[5mC]*dA*dG*d[5mC]*dT*dT*d[5mC]*dA*e[5mC]*eT*eG*eA*eA) [compound 147823]”, the “%INHIB” value came to 19%.

Take “147825 (antisense eA*eG*eA*eA*eG*d[5mC]*dT*dG*d[5mC]*d[5mC]*dT*d[5mC]*dT*dT*d[5mC]*eT*eT*e[5mC]*e[5mC]*e[5mC]) [compound 147825]”: the “%INHIB” value came to 72%.

As for “147826 (antisense eT*e[5mC]*eA*eG*eG*dG*dT*dG*dA*dG*d[5mC]*d[5mC]*d[5mC]*dT*dG*eT*eG*eT*eG*eT) [compound 147826]”, the “%INHIB” value came out at 80%.

With “147827 (antisense e[5mC]*eT*eA*eA*eT*dG*dG*d[5mC]*d[5mC]*d[5mC]*d[5mC]*dT*dT*dG*dA*eT*eA*eA*eA*e[5mC]) [compound 147827]”, the “%INHIB” value is on record as 13%.

Consider “147828 (antisense eA*e[5mC]*eG*eT*eT*dA*dT*d[5mC]*d[5mC]*dT*dT*dG*dA*dG*dT*e[5mC]*e[5mC]*e[5mC]*eT*eG) [compound 147828]”, for which the “%INHIB” value came to 12%.

On to “147829 (antisense eT*eA*eT*eA*eT*d[5mC]*d[5mC]*d[5mC]*dA*dG*dG*dT*dT*dT*d[5mC]*e[5mC]*e[5mC]*e[5mC]*eG*eG) [compound 147829]”, for which the “%INHIB” value is 64%.

As for “147831 (antisense e[5mC]*eT*eG*e[5mC]*e[5mC]*dT*dA*d[5mC]*dT*dG*d[5mC]*dA*dA*dG*dG*e[5mC]*eT*eG*eG*e[5mC]) [compound 147831]”, the “%INHIB” value came to 0%.

For “147833 (antisense eA*eT*eG*eA*eT*dA*d[5mC]*dA*d[5mC]*dA*dA*dT*dA*dA*dA*eG*eA*e[5mC]*eT*e[5mC]) [compound 147833]”, the “%INHIB” value amounted to 25%.

Source of the values: patent US8735364B2, “Antisense modulation of apolipoprotein B expression” (Genzyme Corporation, priority 2001, dated 2014).
